From US12128030B2, “Pharmaceutical composition comprising antiplatelet agent and gastric acid secretion inhibitor” (HK INNO.N CORPORATION, priority 2018, dated 2024)

Assays:
[1] = clopidogrel in direct contact with compound of Formula 1; 40° C./RH 75%, four weeks
Method: A test on blending compatibility with additives was performed in a state, in which clopidogrel was alone and mixed with a compound of Formula 1.
A ratio of additives to main component was adjusted, after which a change of contents and related substances was evaluated under accelerated test conditions (40° C./RH 75%) for four weeks, such that the results thereof are shown in FIGS. 3 to 5.

[2] = Evaluation test on pharmacokinetic drug interactions through nonclinical models; format: in vivo; settings: beagle dogs; combined administration with clopidogrel
Method: To determine the effect of esomeprazole (PPI drug) and a compound of Formula 1 on a medicinal effect of clopidogrel, a test on pharmacokinetic drug interactions was performed in such a way that 20 mg of clopidogrel and 20 mg of esomeprazole or 50 mg of the compound of Formula 1 were administered in combination into beagle dogs once or repeatedly (for seven days).
Particularly, clopidogrel was repeatedly administered into ten beagle dogs for seven days, after which esomeprazole and the compound of Formula 1 were administered in combination into those beagle dogs at steady-state for seven days, such that blood was collected therefrom on 5th, 8th and 14th days, to perform a pharmacokinetic analysis before and after the administration.
FIGS. 1 and 2 are graphs of showing a concentration of clopidogrel active metabolites in blood, which was measured after administering esomeprazole and the compound of Formula 1 in combination, respectively.

stability of drug (contents and related substances) [1] | risk of drug interactions with clopidogrel [2] | SMILES
stability of a drug deteriorates | – | COC(=O)[C@H](c1ccccc1Cl)N1CCc2sccc2C1 [clopidogrel, methyl (+)-(S)-α-(2-chlorophenyl)-6,7-dihydrothieno[3,2-c]pyridine-5(4H)-acetate]
– | low risk of drug interactions | Cc1nc2c(O[C@H]3CCOc4cc(F)cc(F)c43)cc(C(=O)N(C)C)cc2[nH]1 [compound of Formula 1, (S)-4-[(5,7-difluoro-3,4-dihydro-2H-chromene-4-yl)oxy]-N,N,2-trimethyl-1H-benzimidazole-6-carboxamide]
